Entries after “also recorded” stand apart in the source; their conditions may differ.
How the values were obtained:
HIV-1 IIIB = assay: HIV-1 infectivity assay against non-drug-resistant strain in H9 lymphocytes; assay type: cell-based; conditions: for EC50: concentration that inhibits HIV-1IIIB replication by 50%: H9 lymphocytes, p24, day 6 PI; for anti-HIV activity in words: HIV-1 replication in H9 lymphocytes
uninfected H9 cells = assay: Toxicity to mock-infected H9 cells; assay type: cell-based; conditions: human, mock-infected (uninfected) H9 T-cells

| EC50: concentration that inhibits HIV-1IIIB replication by 50% (HIV-1 IIIB) | SMILES | anti-HIV activity in words (HIV-1 IIIB) | IC50 at 6 days (uninfected H9 cells) [µM] |
| --- | --- | --- | --- |
| no suppression | Cc1cc(=O)oc2c3c(ccc12)[S+]([O-])[C@@H](C)C(OC(=O)C12CCC(C)(C(=O)O1)C2(C)C)C3OC(=O)C12CCC(C)(C(=O)O1)C2(C)C (stereo partly drawn) [9a+9b, 1′-Sulfoxide-2′,4-dimethyl-3′,4′-di-O-(−)-camphanoyl-(+)-cis-khellactone] |  |  |
|  | Cc1cc(=O)oc2c3c(ccc12)O[C@H](C)[C@@H](OC(=O)[C@]12CC[C@](C)(C(=O)O1)C2(C)C)[C@H]3OC(=O)[C@]12CC[C@](C)(C(=O)O1)C2(C)C [Compound 5b, (2′R,3′R,4′S)-2′,4-Dimethyl-3′,4′-di-O-(−)-camphanoyl-(+)-cis-khellactone] | low potency |  |
|  | Cc1cc(=O)oc2c3c(ccc12)S[C@H](C)[C@H](OC(=O)[C@]12CC[C@](C)(C(=O)O1)C2(C)C)[C@@H]3OC(=O)[C@]12CC[C@](C)(C(=O)O1)C2(C)C [Compound 8, (2′R,3′R,4′R)-1′-Thia-2′,4-Dimethyl-3′,4′-di-O-(−)-camphanoyl-(+)-cis-khellactone] | much weaker inhibitory activity |  |
| no suppression | Cc1cc(=O)oc2c3c(ccc12)O[C@H](C)[C@H](OC(=O)[C@]12CC[C@](C)(C(=O)O1)C2(C)C)[C@@H]3OC(=O)[C@]12CC[C@](C)(C(=O)O1)C2(C)C [Compound 6, (2′R,3′S,4′R)-2′,4-Dimethyl-3′,4′-di-O-(−)-camphanoyl-(+)-cis-khellactone] | inactive at the test concentrations; also recorded: much weaker inhibitory activity |  |
| no suppression | Cc1cc(=O)oc2c3c(ccc12)S(=O)(=O)[C@H](C)[C@H](OC(=O)[C@]12CC[C@](C)(C(=O)O1)C2(C)C)[C@@H]3OC(=O)[C@]12CC[C@](C)(C(=O)O1)C2(C)C [Compound 12, (8R,9R,10R)-1′-Sulfone-2′,4-dimethyl-3′,4′-di-O-(−)-camphanoyl-(+)-cis-khellactone] |  |  |
|  | Cc1cc(=O)oc2c3c(ccc12)OC(C)(C)[C@H](OC(=O)[C@]12CC[C@](C)(C(=O)O1)C2(C)C)[C@@H]3OC(=O)[C@]12CC[C@](C)(C(=O)O1)C2(C)C [Compound 2] |  | > 39.2 |

| SMILES | EC50: concentration that inhibits HIV-1IIIB replication by 50% (HIV-1 IIIB) | anti-HIV activity in words (HIV-1 IIIB) | IC50 at 6 days (uninfected H9 cells) [µM] |
| --- | --- | --- | --- |
| Cc1cc(=O)oc2c3c(ccc12)S[C@H](C)[C@@H](OC(=O)[C@]12CC[C@](C)(C(=O)O1)C2(C)C)[C@H]3OC(=O)[C@]12CC[C@](C)(C(=O)O1)C2(C)C [Compound 7b, (2′R,3′S,4′S) -1′-Thia-2′,4-dimethyl-3′,4′-di-O-(−)-camphanoyl-(+)-cis-khellactone] | no suppression | inactivity |  |

From publication PMC2949462 (Bioorganic & medicinal chemistry, 2010)
